In patent publication US7183255B2, “Method for stabilizing blood pressure in hemodialysis subjects” (Intradialytic Pharmaceuticals, priority 2003, dated 2007):
Several values for one entry are separate records, joined by “and”; a condition that tells them apart may be missing. Equal entries are not always repeated.

What was measured:
Format in all cases: in vivo, human
[1] = Plasma AVP (radioimmunoassay) during constant AVP infusion, control vs hemodialysis periods (Example 1); set-up: plasma concentration of AVP at 2 h: unit not given here; conditions: for plasma concentration of AVP at 2 h: ESRD patients, n=4
Protocol: (§1) Healthy controls and patients with end-stage renal disease (e.g. defined as creatinine clearance of less than 10 ml/min) were studied. The studies were conducted on regularly scheduled hemodialysis days. The duration of hemodialysis remained the same as that prescribed prior to the study period. AVP or placebo (normal saline) was administered at a constant rate of 0.15, 0.3 or o.6 mU/kg/min through a venous line (controls) or through the venous limb of the dialysis circuit (hemodialysis patients). The patient's hemodialysis prescription remained unchanged except for the administration of AVP or placebo. Intradialytic hypotension was treated in the customary manner with the infusion of isotonic and hypertonic fluids.
(§2) Serum AVP levels were determined by a radioimmunoassay technique. Blood pressure was measured with a cuff-type sphygmomanometer at 20 minute intervals.
Plasma AVP is not dialyzed. To examine whether administration of exogenous AVP could prevent intradialytic hypotension, it was first determined whether the dialysis procedure removed the hormone from the blood. To determine this, AVP was administered at doses that had no effect in normal subjects and determined the plasma concentrations and pressure responses to AVP infusion in healthy control subjects and hemodialysis patients.
To rule out the possibility that the lack of a rise in plasma AVP during dialysis was due to the fact that the newly secreted hormone was being dialyzed as was being secreted, we measured plasma AVP during the infusion of exogenous AVP to ERDS patients during control conditions and during hemodialysis.

[2] = system: ESRD patients during hemodialysis; test: Fluids needed to maintain blood pressure and weight lost during hemodialysis with AVP, 5 patients (Example 1, FIG. 6)
Protocol: as §1
AVP Administration allows more fluid removal. […] Dialysis during the administration of AVP resulted both in a decreased in the amount of intravenous fluids needed to maintain blood pressure and in a greater decrease in weight.
The amount of fluids to maintain blood pressure during dialysis and the weight decrease were as given below: […]

normal subjects = test: Systolic arterial pressure during AVP infusion in normal subjects (Example 1); conditions: for systolic arterial blood pressure: normals, n=12, M ± SD
Protocol: as §1, §2
We discovered that patients with ERSD are hypersensitive to vasopressin's pressor action.
The administration of exogenous AVP to patients with ESDR led to the discovery that these patients are hyper-responsive to the vascular effect of this hormone.

[3] = Effect of hemodialysis on plasma vasopressin during constant vasopressin infusion (Example 3, Table 1); conditions: for level at 1 h / level at 2 h / level at 0 h: human, plasma, iv, mean±SE; for level at 1 h: 1 h Dialysis; for level at 2 h: 2 h Dialysis; for level at 0 h: Start Dialysis
Protocol: All patients were studied at regularly scheduled dialysis sessions. Patients underwent conventional hemodialysis with hollow fiber high flux polysulfone dialyzers on volumetric dialysis machines (Cobe Centrysystem 3, Gambro Renal Care Products, Inc., Lakewood, Colo.). Dialysis times were 3.5–4.5 hours. Blood flow was 300–400 mL/min and dialysate was delivered at 600 mL/min. The dialysis bath contained potassium, 2 mEq/L; calcium, 2.5 mEq/L; magnesium, 0.75 mEq/L; and bicarbonate, 40 mEq/L. In those patients who were prescribed dialysate sodium modeling and/or reduced dialysate temperature (35–37° C.) prior to the study, the parameters of these interventions were held constant throughout the study. Ultrafiltration was performed at a constant rate based on the target weight loss for that dialysis session. Oscillometric blood pressure and heart rate measurements were taken at 15–30 minute intervals.
Plasma vasopressin concentration. Vasopressin in plasma was determined as previously described (Landry, D. W., H. R. Levin, et al. (1997). Circulation 95(5): 1122–5).
Administration of vasopressin. In eight normal subjects and eight patients with ESRD off dialysis, 8-arginine vasopressin (vasopressin, American Pharmaceutical Partners, Schaumberg, Ill.) in normal saline was administered through an antecubital intravenous line. In eight patients with ESRD during hemodialysis, vasopressin was infused through the venous (blood return) limb of the dialysis circuit throughout the dialysis session at a rate of 0.15 or 0.3 mU·kg^−1·min^−1.
Effect of hemodialysis on plasma vasopressin concentration during constant infusion of hormone. To determine whether hemodialysis removes vasopressin from plasma (Shimamoto, K., T. Ando, et al. (1977). J Clin Endocrinol Metab 45(4): 818–20; Rosansky, S. J., R. Rhinehart, et al. (1991). Clin Nephrol 35(4): 158–64), we examined the effect of the procedure on the steady state plasma concentration of hormone during constant infusion. Vasopressin was infused for >1 hour to obtain a stable plasma concentration, at which time hemodialysis was initiated.

[4] = hemodialysis with AVP, individual patients 1-5
[5] = 0.15 mU/kg · min^−1, infusion 0.15 mU · kg^−1 · min^−1
[6] = 0.3 mU/kg · min^−1, infusion 0.3 mU · kg^−1 · min^−1

NC(=O)CC[C@@H]1NC(=O)[C@H](Cc2ccccc2)NC(=O)[C@H](Cc2ccc(O)cc2)NC(=O)[C@@H](N)CSSC[C@@H](C(=O)N2CCC[C@H]2C(=O)N[C@@H](CCCN=C(N)N)C(=O)NCC(N)=O)NC(=O)[C@H](CC(N)=O)NC1=O [AVP, 8-arginine vasopressin]
clearance of the hormone from the blood by hemodialysis ([1]; HD instituted during constant AVP infusion): does not clear the hormone from the blood
plasma concentration of AVP at 2 h ([1]; constant infusion dose 0.15, control period): 25.7
plasma concentration of AVP at 2 h ([1]; constant infusion dose 0.15, hemodialysis period): 28.9
plasma concentration of AVP at 2 h ([1]; constant infusion dose 0.3, control period): 47.4
plasma concentration of AVP at 2 h ([1]; constant infusion dose 0.3, hemodialysis period): 51.2
plasma concentration of AVP at 2 h ([1]; constant infusion dose 0.6, control period): 100.0
plasma concentration of AVP at 2 h ([1]; constant infusion dose 0.6, hemodialysis period): 104.6
plasma level of AVP ([1]; infusion of 0.3 mU/kg/min, hemodialysis patients and control subjects): ~40 pg/m
blood pressure stability and extra fluid removal ([2]; all patients on AVP (FIG. 6)): the blood pressure was stable and extra fluid removal was possible
Fluids given to maintain blood pressure during dialysis [2, 4]: 0 mL
Weight lost [2, 4]: 2.8 Kg and 1.8 Kg and 2.2 Kg (2×) and 3.0 Kg
pressor action of AVP (normal subjects; normal subjects, same dose as in ESRD patients (FIG. 3A)): no pressure action
systolic arterial blood pressure (normal subjects; 30 minutes of AVP infusion): 114 ± 10
systolic arterial blood pressure (normal subjects; 60 minutes of AVP infusion): 113 ± 10
systolic arterial blood pressure (normal subjects; 90 minutes of AVP infusion): 114 ± 10
systolic arterial blood pressure (normal subjects; 120 minutes of AVP infusion): 113 ± 11
systolic arterial blood pressure (normal subjects; before infusion (baseline)): 115 ± 13
level at 1 h [3, 5]: 0.025 ± 0.006 ng/mL
level at 2 h [3, 5]: 0.029 ± 0.006 ng/mL
level at 0 h [3, 5]: 0.026 ± 0.004 ng/mL
level at 1 h [3, 6]: 0.054 ± 0.006 ng/mL
level at 2 h [3, 6]: 0.052 ± 0.009 ng/mL
level at 0 h [3, 6]: 0.047 ± 0.006 ng/mL
change of plasma concentrations of vasopressin by hemodialysis ([3]; steady state during constant infusion, hemodialysis initiated after >1 hour): not significantly changed
